This data set is described as follows: Solubility observed during complexation. In kind it is physicochemical. How it is done: Ligand II is not soluble either in 0.1 M HCl or in H2O. The complexation was carried out in MeOH using zirconium (IV) acetylacetonate [Zr(acac)4]. A mixture of ligand II (50 mg, 0.058 mmol) and Zr(acac)4 (28.3 mg, 0.058 mmol) in 15 mL MeOH was heated at reflux for 15 h with continuous stirring under N2 atmosphere. The solvent was then removed and the residue was then washed with Et2O (20 mL) and acetone (10 mL). The compound was obtained as off white solid (48 mg, 87%). The compound is it not soluble in common organic solvents including DMSO. […] Therefore due to the limited solubility NMR spectra of the compound could not be obtained. However, the formation of the complex can be confirmed using LC-MS. Elemental analysis calculated for C38H64N8O14Zr.6H2O.(CH3)2CO3C, 44.19, H, 7.42, N, 10.06. Found C, 44.11, H, 7.04, N, 10.16.

As for `CC(=O)N(O)CCCCCNC(=O)CCC(=O)N(O)CCCCCNC(=O)CCC(=O)N(O)CCCCCNC(=O)CCC(=O)N(O)CCCCCNC(=O)CCC(=O)O` [Ligand II, 4-[5-[[4-[5-[[4-[5-[[4-[5-[acetyl(hydroxy)amino]pentylamino]-4-oxo-butanoyl]-hydroxy-amino]pentylamino]-4-oxo-butanoyl]-hydroxy-amino]pentylamino]-4-oxo-butanoyl]-hydroxy-amino]pentylamino]-4-oxo-butanoic acid], the “solubility in 0.1 M HCl” value (0.1 M HCl) is given as “not soluble”. Further, under “H2O”, the “solubility in H2O” value is “not soluble”.

Source of the values: patent publication US11033642B2, “Multidentate bifunctional chelating agents for radionuclide complexation in diagnostics and therapy” (UNIVERSITAT ZURICH, priority 2014, dated 2021).
